Molecular target: Y78F hTTR mutant (Homo sapiens, UniProt P02766, Y98F)
Assay: turbidimetric test of amyloidogenesis (fibril formation) inhibiting activity in vitro
Type: biochemical
Details: for RA (%): % reduction of the rate of aggregation at high inhibitor concentration: RA(%)=(1−A/(A+B))·100, compared with the rate in the absence of inhibitor; for IC50: inhibitor concentration at which the aggregation was half that in the absence of inhibitor, 0 to 40 μM inhibitor, 37° C., acid-induced (dilution buffer pH 4.2); for Ψ: initial slope of curve v0 versus [I]: sensitivity of the aggregation process to the inhibitor, higher = greater inhibiting effect
Description: The compounds to be tested as inhibitors were dissolved in DMSO at a concentration of 1.5 mM. The working solution was prepared by 1 to 4 dilution of the previous solution in a water/DMSO mixture (2:1). […] The incubation buffer was 10 mM sodium phosphate, 100 mM potassium chloride, 1 mM EDTA, […]. The dilution buffer was 400 mM sodium acetate, 100 mM potassium chloride, 1 mM EDTA, pH 4.2. The test protocol for an inhibitor was as follows: 20 μl of the protein solution was dispensed in 7 wells of a 96-well microplate. Different volumes of the inhibitor working solution were added to each of the wells to obtain end concentrations of 0 to 40 μM. Incubation buffer was then added to each well up to an end volume of 100 μl. The microplate was incubated at 37° C. in the microplate reader provided with thermostatting and stirring. Incubation proceeded for 30 min at 37° C. with stirring for 15 seconds every minute. 100 μl of dilution buffer was then added to every well, and the mixture was incubated at 37° C. with stirring for 15 seconds every minute in the microplate reader and absorbance was monitored at 330 nm for 1 hour 30 minutes at intervals of 1 minute. The data of absorbance versus time for every well were collected and analysed with the Microsoft Excel program. All tests were done in duplicate.
1.—Initial fibril formation rate. From the absorbance readings at 330 nm with the incubation time for every well, the initial fibril formation rate was calculated as the slope of the initial linear portion of the curve. Thus, the aggregation rate was obtained at every inhibitor concentration. 2.—Aggregation rate versus inhibitor concentration.
The adjusted parameters were: A (in units of absorbance per hour), residual aggregation rate at high inhibitor concentration; B (in units of absorbance per hour), amplitude or maximum reduction of the aggregation rate; and C (in μM^−1) the exponential constant. A+B was the aggregation rate in the absence of inhibitor (maximum aggregation rate). From these parameters, other parameters were extracted that characterised every inhibitor with regard to its capacity and effectiveness in inhibiting fibril formation: • IC50: inhibitor concentration (μM) at which the aggregation was half that in the absence of inhibitor; • Ψ: initial slope of curve v0 versus [I], which reflected the sensitivity of the aggregation process to the inhibitor.

RA (%): % reduction of the rate of aggregation at high inhibitor concentration [%]	IC50 [µM]	Ψ: initial slope of curve v0 versus [I] [UA · hr^−1 · μM^−1]	Compound
24	> 100	0.011	COC(=O)c1cc(-c2ccc(F)cc2F)ccc1O [Diflunisal methylester]
84		0.036	O=C(O)c1cc(-c2ccc(F)cc2F)ccc1O [Diflunisal, 5-(2,4-difluorophenyl)salicylic acid]
84	11.7	0.041	NC(=O)c1cc(-c2ccc(F)cc2F)cc(I)c1O [Iododiflunisalamide, 5-(2,4-difluorophenyl)-3-iodo-salicylamide]
98	16.7	0.027	COC(=O)c1cc(-c2ccc(F)cc2F)cc(I)c1O [Iododiflunisalmethyl ester, methyl 5-(2,4-difluorophenyl)-3-iodo-salicylate]

The remaining lines, values behind:

Compound	RA (%): % reduction of the rate of aggregation at high inhibitor concentration [%]	IC50 [µM]	Ψ: initial slope of curve v0 versus [I] [UA · hr^−1 · μM^−1]
NC(=O)c1cc(-c2ccc(F)cc2F)ccc1O [Diflunisal amide]	10	> 100	0.009
O=C(O)CNC(=O)c1cc(-c2ccc(F)cc2F)ccc1O [Diflunisal glycine]	28	> 100	0.011
N-[5-(2,4-difluorophenyl)-3-iodo-salicyloyl]glycine [Iododiflunisalglycine]	100	11.2	0.040

— US7265245B2, “Compounds useful for the treatment of diseases associated with the formation of amyloid fibrils” (Innovaprotean, S.L, priority 2003, dated 2007)
